Measured values published in patent US8598127B2, “Peptides for inhibiting MDM2 function” (Korea Research Institute of Bioscience & Biotechnology, priority 2004, dated 2013).
Where no end group is shown, it is not given here.

Legend:
[1] = system: Carcinoma cell lines, MCF-7, HCT 11 6, A549 and SNU-71; assay: MTT assay, induction of apoptosis of cancer cells; format: cell-based; conditions: cancer cells treated for 18 hrs
Protocol: Carcinoma cell lines, MCF-7, HCT 11 6, A549 and SNU-71, were cultured in RPMI 1640 medium supplemented with 10% FBS and 100 U/ml penicillin/streptomycin in a humidified 5% CO2 incubator (Gibco-BRL, UK) at 37° C. The cultured cancer cells were treated for 18 hrs with HIV-1 Tat(48-60)-p53 TAD(50-54), an alanine-substituted peptide of SEQ ID NO. 7 and a trytophane-substituted peptide of SEQ ID NO. 11. Then, induction of apoptosis of cancer cells was determined by an MTT assay using the tetrazolium salt, 3-(4,5-dimethylthiazol-2-yl)-2,5-diphenyltetrazolium bromide (MTT). In the MTT assay, after the cancer cells were incubated for 2 hrs in RPMI 1640 medium supplemented with 10% FBS and 0.5 mg/ml MTT, the medium was removed, and 100 μl of DMSO was added.
Four carcinoma cell lines were treated for 18 hrs with HIV-1 Tat(48-60)-p53 TAD(50-54), which was prepared by linking a cell permeable peptide HIV-1 Tat(48-60) consisting of amino acid residues 48-60 of the HIV-1 Tat protein of SEQ ID NO. 22 to the N-terminal end of p53 TAD(50-54), and alanine-substituted and trytophane-substituted peptides thereof. Then, the induction of apoptosis of cancer cells was determined by an MTT assay, and the cancer cells were microscopically observed.

mdm2(3-109) = biological target: T1, mdm2(3-109) (Homo sapiens, UniProt Q00987); assay: Chemical shift perturbation experiment (15N-1H HSQC NMR titration of 15N-mdm2(3-109) with p53 TAD or fragment peptides); format: binding; conditions: 0.2 mM 15N-mdm2(3-109), 25° C.; for binding affinity to mdm2 as indicated by chemical shift perturbation: 15N-1H HSQC titration
T1 construct: made in house; host or cells: E. coli BL21(DE3), pLM1 vector
Protocol: All NMR data were measured using a Varian Unity INOVA 600 MHz NMR spectrometer at 5° C. and 25° C. ^15N—^1H HSQC (heteronuclear single quantum coherence spectroscopy) spectra were collected with spectral widths of 8000 Hz in the ^1H dimension and 1800 Hz in the ^15N dimension, and with 1024 data points in the t2 domain and 256 data points in the t1 domain.
Also, ^15N—^1H HSQC spectra were collected for the ^15N-labeled mdm2(3-109) protein, dissolved in a buffer solution of 25 mM Tris HCl (pH 7.5), 150 mM NaCl, 2 mM DTT, 0.1 mM PMSF, 0.1 mM EDTA, 0.1 mM benzamidine and 0.02% NaN3, at 0.2 mM of ^15N-mdm2(3-109) and 25° C.
First, HSQC spectra of ^15N-mdm2(3-109) in a free state were collected (FIG. 4). […] Chemical shift assignments of mdm2(3-109) in a free and bound states were performed using 3D NMR experiments, HNCA, HNCOCA, ^15N-edited TOCSY and ^15N-edited NOESY spectrum analysis.
2D ^15N—^1H HSQC spectra were collected for the free (unbound) form of purified ^15N-labeled mdm2(3-109).

Substance	effect on apoptosis induction in cancer cells [1]	binding affinity to mdm2 as indicated by chemical shift perturbation (mdm2(3-109))	changes in chemical shift of 15N-mdm2(3-109) after addition of the peptide (mdm2(3-109); 15N-1H HSQC)
DAEQAA	unable to induce apoptosis in cancer cells		
DIEQWF-NH2 [p53 TAD(49-54), DIEQWF]	effectively induces apoptosis		
DVEQVV (DVEQVV-NH2) [Val-substituted peptide having I50V/W53V/F54V substitutions relative to the native p53(49-54) peptide]		low binding affinity to mdm2	small change in chemical shift
DWEQWW	greatly higher activity in inducing apoptosis than the native DIEQWF		
p53 TAD(1-73): recombinant p53 TAD domain corresponding to residues 1-73 of the TAD of human p53		high affinity	
